{"source": "patent US6376511B2", "about": "“8-aminoquinolines” (The University of Mississippi, priority 1999, dated 2002)", "key": {"[1]": {"tested_on": "Plasmodium berghei KBG-173", "format": "in vivo", "conditions": "for Parasitemia Day 6: percentage of red blood cells with parasites, control 31.8", "method": "Blood Schizontocidal Test (Trophozoite-Induced Plasmodium berghei Infection in mice University of Miami, Test System: Thompson Test\nDrugs were mixed in 0.5% hydroxycellulose 0.1% Tween 80 and administered orally b.i.d. on days 3, 4 and 5 postinfection. CD-1 male or female mice, 5 weeks of age, were infected with 5×10^4 parasitized erythrocytes of Plasmodium berghei KBG-173 mm strain. Blood films were taken on day +6 and weekly thereafter until day +60. Parasitemias were calculated and SD90 value (dose suppressing 90% of the parasites in treated groups compared with the infected non-treated controls) on day +6 postinfection. Mortality data was tabulated for 60 days at which time all mice surviving that were blood film negative were considered cured.\n[…] The activity of these compounds were compared with the untreated control and “racemate” which is a mixture of equal amount of each enantiomer X and Y. In untreated controls, death occurs within 8-9 days. Compounds which are effective against Plasmodium berghei infection increase the mean survival time of the infected animals when compared with the untreated controls. Mice that survive after thirty days and are free of parasites in blood are considered cured.\nEfficacy of the drug is determined by the number of cures at the end of a 30 day period and the increase in mean survival time over the control (ΔMST). The effect of the test drugs also could be determined by the reduction of the parasitemia (percentage of the red blood cells detected with the parasites) over the untreated control on day 6, one day after the treatment is completed. Both these methods yield virtually identical results. If the dose of test compounds are inadequate, after initial clearance, residual parasites will multiply and relapses will occur within thirty days. The blood schizontocidal activities (suppressive antimalarial) of X, Y, and racemate against P. berghei in mice are shown in Table 11."}, "[2]": {"tested_on": "Plasmodium berghei KBG-173", "test": "Prophylactic test, Plasmodium berghei infection in mice, oral", "format": "in vivo", "conditions": "for Mice surviving day 60/Mice infected and treated: single dose of 2 mg/kg", "from_the_text": "CD-I male or female mice, 5 weeks of age, were infected with 5×10^4 parasitized erythrocytes ot Plasmodium berghei KBG-173 mm strain. Blood films were taken on day +6 and weekly thereafter until day+30. […]"}, "P. carinii": {"tested_on": "P. carinii", "test": "In vitro antipneumocystis activity", "format": "cell-based", "conditions": "Pneumocystis carinii, 168 h, read-out: % of control on day 7"}, "Pneumocystis carinii": {"tested_on": "Pneumocystis carinii", "test": "Anti-Pneumocystis carinii test (induced Pneumocystis carinii infection in immunosuppressed mice), oral", "format": "in vivo", "conditions": "mice"}, "L. mexicana amazonensis": {"tested_on": "L. mexicana amazonensis", "test": "In vitro anti-Leishmania activity, Giemsa counts", "format": "cell-based", "conditions": "10 μg/mL; control 15.10 ± 2.18"}, "L. donovani Chagasi PP75": {"tested_on": "L. donovani Chagasi PP75", "test": "In vitro anti-Leishmania activity, Giemsa counts", "format": "cell-based", "conditions": "control 6.35"}, "Toxoplasma gondii": {"tested_on": "Toxoplasma gondii", "test": "In vitro evaluation against Toxoplasma gondii", "format": "cell-based", "conditions": "preliminary evaluation"}, "[3]": {"tested_on": "trypanosome isolate EATRO Lab 110", "test": "Antitrypanosomal activity, trypanosome isolates grown as blood forms in HMI-18", "format": "cell-based, Trypanosoma", "conditions": "Trypanosoma, 48 h", "method": "(§1) Compounds were tested vs. trypanosome isolates grown as blood forms in HMI-18 (Hirumi H., Hirumi, K. 1989. Continuous Cuitivation of Trypanosoma brucei bloodstream forms in a medium containing a low concentration of serum portein without feeder cell layers. J. Parasitol. 75:985-989) containing 20% horse serum."}, "[4]": {"tested_on": "trypanosome isolate KETRI 243As103", "test": "Antitrypanosomal activity, trypanosome isolates grown as blood forms in HMI-18", "format": "cell-based, Trypanosoma", "conditions": "Trypanosoma, 48 h", "method": "as §1"}, "[5]": {"tested_on": "trypanosome isolate KETRI 243", "test": "Antitrypanosomal activity, trypanosome isolates grown as blood forms in HMI-18", "format": "cell-based, Trypanosoma", "conditions": "Trypanosoma, 48 h", "method": "as §1"}, "[6]": {"tested_on": "trypanosome isolate KETRI 269", "test": "Antitrypanosomal activity, trypanosome isolates grown as blood forms in HMI-18", "format": "cell-based, Trypanosoma", "conditions": "Trypanosoma, 48 h", "method": "as §1"}, "Leishmania": {"tested_on": "Leishmania", "test": "In vitro activity against a variety of strains of Leishmania", "format": "cell-based"}, "P. berghei": {"tested_on": "P. berghei", "conditions": "single dose 72 h after infection, cited from earlier work"}, "P. cynomolgi": {"tested_on": "P. cynomolgi", "conditions": "rhesus monkey, cited from earlier work"}, "[7]": {"conditions": "0.25 mg/kg/day, 0.75 mg/kg total"}, "[8]": {"conditions": "oral 1.3 mg/kg/day (x21), mean score on 0 to 5+ scale"}}, "note": "pIC50: −log10 of the molar value. Like-named read-outs stand apart in the source and are kept apart here."}
{"smiles": "COc1cc(NC(C)CCCN)c2nccc(C)c2c1Oc1ccc(Cl)c(Cl)c1", "note": "(racemic) [DN3-27-1, 8-[(4-amino-1-methylbutyl)amino]-5-(3,4-dichlorophenoxy)-6-methoxy-4-methylquinoline]", "values": [{"measurement": "Mice Alive Day 26", "setting": "[1]; [7]", "result": "0/5"}, {"measurement": "ΔMST (increase in mean survival time over the control)", "setting": "[1]; [7]", "result": 11.6, "unit": "days"}, {"measurement": "Parasitemia Day 6", "setting": "[1]; [7]", "result": 4.8}, {"measurement": "Mice Alive Day 26", "setting": "[1]; 1 mg/kg/day, 3 mg/kg total", "result": "0/5"}, {"measurement": "ΔMST (increase in mean survival time over the control)", "setting": "[1]; 1 mg/kg/day, 3 mg/kg total", "result": 10.2, "unit": "days"}, {"measurement": "Parasitemia Day 6", "setting": "[1]; 1 mg/kg/day, 3 mg/kg total", "result": 0.1}, {"measurement": "toxicity in mice", "setting": "[1]; highest dose tested (Table I)", "result": "no mice showed toxicity at the highest dose tested"}, {"measurement": "Mice surviving 60 days/Mice infected and treated", "setting": "[1]; oral dose 1 mg/kg/day (total dose 3 mg/kg), P. berghei in mice", "result": "7/7"}, {"measurement": "Mice surviving 60 days/Mice infected and treated", "setting": "[1]; oral dose 4 mg/kg/day (total dose 12 mg/kg), P. berghei in mice", "result": "7/7"}, {"measurement": "Mice surviving 60 days/Mice infected and treated", "setting": "[1]; oral dose 16 mg/kg/day (total dose 48 mg/kg), P. berghei in mice", "result": "7/7"}, {"measurement": "Mice surviving 60 days/Mice infected and treated", "setting": "[1]; oral dose 64 mg/kg/day (total dose 192 mg/kg), P. berghei in mice", "result": "7/7"}, {"measurement": "blood schizonticidal activity, comparison among compounds of Table I", "setting": "[1]; oral, P. berghei in mice", "result": "the most active"}, {"measurement": "Mice infected and Mice/treated surviving day 60", "setting": "[2]; day of treatment 1, dose 2 mg/kg", "result": "5/5"}, {"measurement": "Mice infected and Mice/treated surviving day 60", "setting": "[2]; day of treatment 1, dose 8 mg/kg", "result": "5/5"}, {"measurement": "Mice infected and Mice/treated surviving day 60", "setting": "[2]; day of treatment 1, dose 32 mg/kg", "result": "5/5"}, {"measurement": "Mice infected and Mice/treated surviving day 60", "setting": "[2]; day of treatment 1, dose 128 mg/kg", "result": "5/5"}, {"measurement": "Mice infected and Mice/treated surviving day 60", "setting": "[2]; day of treatment 2, dose 2 mg/kg", "result": "5/5"}, {"measurement": "Mice infected and Mice/treated surviving day 60", "setting": "[2]; day of treatment 2, dose 8 mg/kg", "result": "5/5"}, {"measurement": "Mice infected and Mice/treated surviving day 60", "setting": "[2]; day of treatment 2, dose 32 mg/kg", "result": "5/5"}, {"measurement": "Mice infected and Mice/treated surviving day 60", "setting": "[2]; day of treatment 2, dose 128 mg/kg", "result": "5/5"}, {"measurement": "Mice infected and Mice/treated surviving day 60", "setting": "[2]; day of treatment -1, dose 2 mg/kg", "result": "5/5"}, {"measurement": "Mice infected and Mice/treated surviving day 60", "setting": "[2]; day of treatment -1, dose 8 mg/kg", "result": "5/5"}, {"measurement": "Mice infected and Mice/treated surviving day 60", "setting": "[2]; day of treatment -1, dose 32 mg/kg", "result": "5/5"}, {"measurement": "Mice infected and Mice/treated surviving day 60", "setting": "[2]; day of treatment -1, dose 128 mg/kg", "result": "5/5"}, {"measurement": "Mice infected and Mice/treated surviving day 60", "setting": "[2]; day of treatment -2, dose 2 mg/kg", "result": "5/5"}, {"measurement": "Mice infected and Mice/treated surviving day 60", "setting": "[2]; day of treatment -2, dose 8 mg/kg", "result": "5/5"}, {"measurement": "Mice infected and Mice/treated surviving day 60", "setting": "[2]; day of treatment -2, dose 32 mg/kg", "result": "5/5"}, {"measurement": "Mice infected and Mice/treated surviving day 60", "setting": "[2]; day of treatment -2, dose 128 mg/kg", "result": "5/5"}, {"measurement": "Mice infected and Mice/treated surviving day 60", "setting": "[2]; day of treatment -3, dose 2 mg/kg", "result": "0/5"}, {"measurement": "Mice infected and Mice/treated surviving day 60", "setting": "[2]; day of treatment -3, dose 8 mg/kg", "result": "5/5"}, {"measurement": "Mice infected and Mice/treated surviving day 60", "setting": "[2]; day of treatment -3, dose 32 mg/kg", "result": "5/5"}, {"measurement": "Mice infected and Mice/treated surviving day 60", "setting": "[2]; day of treatment -3, dose 128 mg/kg", "result": "5/5"}, {"measurement": "protection from malaria", "setting": "[2]; single dose of 2 mg/kg within 2 days preinfection through 2 days post infection, mice", "result": "completely protected from malaria"}, {"measurement": "Mice surviving day 60/Mice infected and treated", "setting": "[2]; day of treatment 2 (Table 5)", "result": "2/5"}, {"measurement": "Mice surviving day 60/Mice infected and treated", "setting": "[2]; day of treatment -2 (Table 5)", "result": "0/5"}, {"measurement": "Mice surviving day 60/Mice infected and treated", "setting": "[2]; day of treatment -3 (Table 5)", "result": "0/5"}, {"measurement": "Mice surviving day 60/Mice infected and treated", "setting": "[2]; day of treatment -4 (Table 5)", "result": "0/5"}, {"measurement": "Mice surviving day 60/Mice infected and treated", "setting": "[2]; day of treatment -5 (Table 5)", "result": "0/5"}, {"measurement": "activity at 0.1 µg/mL", "setting": "P. carinii; concentration 0.1 μg/ml", "result": 76.7, "unit": "%"}, {"measurement": "activity at 1 µg/mL", "setting": "P. carinii; concentration 1.0 μg/ml", "result": 40.5, "unit": "%"}, {"measurement": "activity at 10 µg/mL", "setting": "P. carinii; concentration 10 μg/ml", "result": 3.2, "unit": "%"}, {"measurement": "Giemsa Stain I/T (animals with organism after treatment/animals treated)", "setting": "Pneumocystis carinii; oral 0.25 mg/kg/day (x21)", "result": "2/10"}, {"measurement": "Giemsa Stain I/T (animals with organism after treatment/animals treated)", "setting": "Pneumocystis carinii; oral 1.3 mg/kg/day (x21)", "result": "0/10"}, {"measurement": "Silver stain I/T (animals with organism after treatment/animals treated)", "setting": "Pneumocystis carinii; oral 1.3 mg/kg/day (x21)", "result": "0/10"}, {"measurement": "Giemsa Stain Score", "setting": "Pneumocystis carinii; [8]", "result": 0.0}, {"measurement": "Silver stain Score", "setting": "Pneumocystis carinii; [8]", "result": 0.0}, {"measurement": "Giemsa Counts", "setting": "L. mexicana amazonensis", "result": "1.30 ± 0.38"}, {"measurement": "Giemsa Counts", "setting": "L. donovani Chagasi PP75; 50 ng/mL", "result": "0.95 ± 0.27"}, {"measurement": "Giemsa Counts", "setting": "L. donovani Chagasi PP75; 150 ng/mL", "result": "0.10 ± 0.03"}, {"measurement": "Giemsa Counts", "setting": "L. donovani Chagasi PP75; 450 ng/mL", "result": "0.00 ± 0.00"}, {"measurement": "activity in vitro against Toxoplasma gondii (concentration)", "setting": "Toxoplasma gondii", "result": "around 50 μM"}, {"measurement": "pIC50", "setting": "[3]", "result": 5.03}, {"measurement": "pIC50", "setting": "[4]", "result": 4.96}, {"measurement": "pIC50", "setting": "[5]", "result": 4.54}, {"measurement": "pIC50", "setting": "[6]", "result": 5.30}, {"measurement": "in vitro activity against a variety of strains of Leishmania", "setting": "Leishmania", "result": "in vitro activity at very low concentrations"}, {"measurement": "Mice infected and treated/Mice surviving 60 days", "setting": "P. berghei; 5 mg/kg subcutaneously", "result": "5/4"}, {"measurement": "Mice infected and treated/Mice surviving 60 days", "setting": "P. berghei; 10 mg/kg subcutaneously", "result": "5/5"}, {"measurement": "Mice infected and treated/Mice surviving 60 days", "setting": "P. berghei; 20 mg/kg subcutaneously", "result": "5/5"}, {"measurement": "Mice infected and treated/Mice surviving 60 days", "setting": "P. berghei; 40 mg/kg subcutaneously", "result": "5/5"}, {"measurement": "Mice infected and treated/Mice surviving 60 days", "setting": "P. berghei; 80 mg/kg subcutaneously", "result": "5/5"}, {"measurement": "Mice infected and treated/Mice surviving 60 days", "setting": "P. berghei; 160 mg/kg subcutaneously", "result": "5/5"}, {"measurement": "Mice infected and treated/Mice surviving 60 days", "setting": "P. berghei; 320 mg/kg subcutaneously", "result": "5/5"}, {"measurement": "Mice infected and treated/Mice surviving 60 days", "setting": "P. berghei; 640 mg/kg subcutaneously", "result": "5/5"}, {"measurement": "Monkeys infected and treated/cured", "setting": "P. cynomolgi; 0.1 mg/kg/day x7, orally", "result": "0/3"}, {"measurement": "Monkeys infected and treated/cured", "setting": "P. cynomolgi; 0.316 mg/kg/day x7, orally", "result": "1/2"}, {"measurement": "Monkeys infected and treated/cured", "setting": "P. cynomolgi; 1.0 mg/kg/day x7, orally", "result": "3/3"}]}
